Here are results for 17 compounds from patent US10829473B2, “Modulators of the cystic fibrosis transmembrane conductance regulator protein and methods of use” (AbbVie Overseas S.Á.R.L., priority 2017, dated 2020).

A word on the EC50: it is the concentration needed to bring the measured effect to its halfway point.

The target of the experiment is T1, F508delCFTR (Homo sapiens, UniProt P13569, DEL508-508).
T1 construct: expressed in transfected cells; host or cells: CFBE41o- human lung derived epithelial cells (CFBE41o-F508delCFTR-HRP), doxycycline-inducible
T1 sequence (P13569 with tags, fused parts or gaps DEL508-508): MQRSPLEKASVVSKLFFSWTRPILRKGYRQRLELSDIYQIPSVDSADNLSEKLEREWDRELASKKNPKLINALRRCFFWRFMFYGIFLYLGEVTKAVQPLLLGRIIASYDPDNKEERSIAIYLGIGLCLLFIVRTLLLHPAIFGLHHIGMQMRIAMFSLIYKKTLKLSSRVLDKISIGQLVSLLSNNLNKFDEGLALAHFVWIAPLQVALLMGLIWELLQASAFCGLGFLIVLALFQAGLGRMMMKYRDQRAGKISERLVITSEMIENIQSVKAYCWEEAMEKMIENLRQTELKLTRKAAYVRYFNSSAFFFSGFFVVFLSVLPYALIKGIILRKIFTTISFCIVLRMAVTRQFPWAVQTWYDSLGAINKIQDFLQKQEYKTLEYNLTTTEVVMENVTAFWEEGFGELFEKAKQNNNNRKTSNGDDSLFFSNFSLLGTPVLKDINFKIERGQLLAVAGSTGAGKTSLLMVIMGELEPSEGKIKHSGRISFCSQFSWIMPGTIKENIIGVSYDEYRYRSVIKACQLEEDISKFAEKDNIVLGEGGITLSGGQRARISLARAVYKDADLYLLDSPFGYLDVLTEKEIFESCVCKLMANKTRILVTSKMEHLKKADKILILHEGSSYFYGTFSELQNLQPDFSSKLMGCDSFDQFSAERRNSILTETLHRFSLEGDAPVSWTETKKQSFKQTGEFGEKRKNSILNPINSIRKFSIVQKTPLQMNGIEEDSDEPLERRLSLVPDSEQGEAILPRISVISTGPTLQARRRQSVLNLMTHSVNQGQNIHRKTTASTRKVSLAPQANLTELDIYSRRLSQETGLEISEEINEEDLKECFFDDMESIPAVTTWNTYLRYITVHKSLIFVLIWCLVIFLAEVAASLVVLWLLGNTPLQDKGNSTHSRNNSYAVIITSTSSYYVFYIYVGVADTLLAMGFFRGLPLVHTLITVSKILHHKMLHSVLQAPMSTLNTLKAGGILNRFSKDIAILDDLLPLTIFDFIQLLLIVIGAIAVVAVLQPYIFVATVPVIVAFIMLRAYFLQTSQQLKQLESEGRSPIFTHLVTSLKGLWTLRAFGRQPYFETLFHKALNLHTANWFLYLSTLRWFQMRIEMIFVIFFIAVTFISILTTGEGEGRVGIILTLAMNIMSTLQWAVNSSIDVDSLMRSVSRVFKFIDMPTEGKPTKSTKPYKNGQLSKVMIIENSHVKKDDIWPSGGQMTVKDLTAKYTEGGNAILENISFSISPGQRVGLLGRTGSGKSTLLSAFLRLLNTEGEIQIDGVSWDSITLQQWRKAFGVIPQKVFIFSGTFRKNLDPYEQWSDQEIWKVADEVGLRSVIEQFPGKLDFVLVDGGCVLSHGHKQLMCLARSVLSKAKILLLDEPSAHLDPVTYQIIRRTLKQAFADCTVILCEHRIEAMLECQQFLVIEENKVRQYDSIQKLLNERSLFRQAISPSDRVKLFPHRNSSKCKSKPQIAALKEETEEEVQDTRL
The experiment in a line: Cell Surface Expression-Horse Radish Peroxidase (CSE-HRP) Assay.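 On EC50 (with co-corrector): co-corrector chromenyl benzoic acid corrector at 2 or 3 µM.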 In kind it is cell-based. The conditions noted are these: for Maximum % activity (with co-corrector) / Emax: maximum at any tested concentration; for Emax: read-out: Maximum % activity (without co-corrector). As to the method: A cellular assay for measuring the F508delCFTR cell surface expression after correction with test compounds either without or with a co-corrector (2 μM of 3-[(2R,4R)-4-({[1-(2,2-difluoro-1,3-benzodioxol-5-yl)cyclopropyl]carbonyl}amino)-7-methoxy-3,4-dihydro-2H-chromen-2-yl]benzoic acid), was developed in human lung derived epithelial cell line (CFBE4lo−) (Veit G et al, (2012) Mol Biol Cell. 23(21): 4188-4202). The development was achieved by expressing the F508delCFTR mutation along with a horseradish peroxidase (HRP) in the fourth exofacial loop, and then measuring the HRP activity using luminescence readout from these cells, CFBE410-F508delCFTR-HRP, that were incubated overnight with the test corrector compounds, either without or with the co-corrector. For this primary assay, the CFBE410-F508delCFTR-HRP cells were plated in 384-well plates (Greiner Bio-one; Cat 781080) at 4,000 cells/well along with 0.5 μg/mL doxycycline to induce the F508delCFTR-HRP expression and further incubated at 37° C., 5% CO2 for 68-72 hours. The test compounds were then added either without or with a co-corrector at the required concentrations and further incubated for 18-24 hours at 33° C. The highest concentration tested was 20 μM or 30 μM (GI-1 to GIII-36) with an 8-point concentration response curve using a 3-fold dilution in both the test compound without or with the co-corrector. Three replicate plates were run to determine one EC50. All plates contained negative controls (dimethyl sulfoxide, DMSO) and positive control (2 μM or 3 μM (GI-1 to GIII-36) of 3-[(2R,4R)-4-({[1-(2,2-difluoro-1,3-benzodioxol-5-yl)cyclopropyl]carbonyl}amino)-7-methoxy-3,4-dihydro-2H-chromen-2-yl]benzoic acid) as well as on-plate concentration response of the positive control. Post incubation, the plates were washed 5× times with Dulbecco's phosphate buffered saline (DPBS), followed by the addition of the HRP substrate, luminol (50 4), and measuring the HRP activity using luminescence readout on EnVision® Multilabel Plate Reader (Perkin Elmer; product number 2104-0010). The raw counts from the experiment were analyzed using Accelrys® Assay Explorer v3.3.
Z′ greater than 0.5 was used as passing quality control criteria for the plates.
The Z′ is defined as: 1−[3*SDPositve Control+3*SDNegative Control/Absolute(MeanPositive Control−MeanNegative Control)] wherein “SD” is standard deviation.
The % activity measured at each of the 8 test concentrations of the test compound added either without or with a co-corrector (2 μM or 3 μM (GI-1 to GIII-36) of 3-[(2R,4R)-4-({[1-(2,2-difluoro-1,3-benzodioxol-5-yl)cyclopropyl]carbonyl}amino)-7-methoxy-3,4-dihydro-2H-chromen-2-yl]benzoic acid) was normalized to the on-plate positive control using the following formulae: % activity (Test compound without co-corrector)=[(test compound without co-corrector response DMSO response)/(positive control response DMSO response)]*100 % activity (Test compound with co-corrector)=[(test compound with co-corrector response DMSO response)/(positive control response DMSO response)]*100
The maximum % activity achieved for the test compound either without or with a co-corrector at any tested concentration is presented in Table 6 along with the respective EC50's calculated using the following general sigmoidal curve with variable Hill slope equation (described as Model 42 in the Accelrys® Assay Explorer v3.3 software): y=(a−d)/(1+(x/c)b)+d
General sigmoidal curve with concentration, response, top, bottom, EC50 and Hill slope. This model describes a sigmoidal curve with an adjustable baseline, a. The equation can be used to fit curves where response is either increasing or decreasing with respect to the independent variable, “x”.
“x” is a concentration of drug under test.
“a” is the maximum response, and “d” is the minimum response
“c” is the inflection point (EGO for the curve. That is, “y” is halfway between the lower and upper asymptotes when x=c.
“b” is the slope-factor or Hill coefficient. […]

Setting [1] is: test compound alone, without co-corrector, read-out: EC50 (without co-corrector).
[2] abbreviates: with co-corrector, read-out: EC50 (with co-corrector).
Where [3] appears, read: test compound with co-corrector.
[4] abbreviates: test compound with co-corrector, read-out: EC50 (with co-corrector).
[5] abbreviates: test compound without co-corrector.
[6] abbreviates: test compound without co-corrector, read-out: EC50 (without co-corrector).

Molecules are shown by their SMILES. Read-outs that look alike come from different tables or passages of the source.

On to `COc1ccc(Br)cc1C1(C(=O)NS(=O)(=O)c2cccc3c2CCCN3)CC1` [Example I-11, 1-(5-bromo-2-methoxyphenyl)-N-(1,2,3,4-tetrahydroquinoline-5-sulfonyl)cyclopropane-1-carboxamide], for which the EC50 under setting [1] was less than 3 µM and the EC50 under setting [2] was less than 3 µM. In addition, under “with co-corrector”, the “Maximum % activity (with co-corrector)” value is listed as “+++ (≥350)”. In addition, under “without co-corrector”, the Emax is more than 150%.
Take `Cc1cnc(N2CCCC2)c(C2(C(=O)NS(=O)(=O)c3cccc4nc(C)ccc34)CC2)c1` [GII-36, 1-[5-methyl-2-(pyrrolidin-1-yl)pyridin-3-yl]-N-(2-methylquinoline-5-sulfonyl)cyclopropane-1-carboxamide]: the “Maximum % activity (with co-corrector)” value under setting [3] is recorded as “+++ (≥350)”. Besides, the EC50 under setting [4] lay in the range of 3 to 10 µM and the EC50 under setting [6] was 3 to 10 µM. Moreover, the Emax under setting [5] was in the range of 50 to 150%.
Consider `CCOc1ccc(C)cc1C1(C(=O)NS(=O)(=O)c2cccc3nc(NC)ccc23)CC1` [II-84], for which the EC50 by setting is: under setting [1], less than 3 µM; under setting [2], less than 3 µM. Moreover, the “Maximum % activity (with co-corrector)” value (with co-corrector) was “+++ (≥350)”. Further, the Emax (without co-corrector) is more than 150%.
Turning to `CCc1cnc(N2CCC(OC)CC2)c(C2(C(=O)NS(=O)(=O)c3cccc4[nH]ccc34)CC2)c1` [GII-58, 1-[5-ethyl-2-(4-methoxypiperidin-1-yl)pyridin-3-yl]-N-(1H-indole-4-sulfonyl)cyclopropane-1-carboxamide], the “Maximum % activity (with co-corrector)” value under setting [3] is listed as “+++ (≥350)”. The EC50 is, setting by setting: under setting [4], 3 to 10 µM; under setting [6], 3 to 10 µM. Besides, the Emax under setting [5] was more than 150%.
On to `O=C(NS(=O)(=O)c1cccc2ncccc12)C1(c2ccc(C(F)(F)F)nc2C2CC2)CC1` [Example GI-5, 1-[2-cyclopropyl-6-(trifluoromethyl)pyridin-3-yl]-N-(quinoline-5-sulfonyl)cyclopropane-1-carboxamide], for which the EC50 by setting is: under setting [1], 3 to 10 µM; under setting [2], less than 3 µM. The “Maximum % activity (with co-corrector)” value (with co-corrector) is on record as “+++ (≥350)”. For the same compound, the Emax (without co-corrector) was more than 150%.
On the same counts, the results for `Cc1ccc(O[C@@H]2CCOC2)c(C2(C(=O)NS(=O)(=O)c3cccc4nc(C)ccc34)CC2)c1` [Example I-123, 1-(5-methyl-2-{[(3R)-oxolan-3-yl]oxy}phenyl)-N-(2-methylquinoline-5-sulfonyl)cyclopropane-1-carboxamide] are less than 3 µM, less than 3 µM, “+++ (≥350)” and more than 150%.
On to `CCc1ccc(OC(C)C)c(C2(C(=O)NS(=O)(=O)c3cccc4[nH]ccc34)CC2)n1` [Example GI-56, 1-{6-ethyl-3-[(propan-2-yl)oxy]pyridin-2-yl}-N-(1H-indole-4-sulfonyl)cyclopropane-1-carboxamide], for which, under setting [3], the “Maximum % activity (with co-corrector)” value was “+++ (≥350)”. Moreover, the EC50 under setting [4] is less than 3 µM and the EC50 under setting [6] was in the range of 3 to 10 µM. In addition, under setting [5], the Emax was more than 150%.
With `COCCOc1ncc(C)cc1C1(C(=O)NS(=O)(=O)c2cccc3[nH]ccc23)CC1` [GII-53, N-(1H-indolc-4-sulfonyl)-1-[2-(2-methoxyethoxy)-5-methylpyridin-3-yl]cyclopropane-1-carboxamide], the “Maximum % activity (with co-corrector)” value under setting [3] was “+++ (≥350)”. Also, the EC50 lay within 3 to 10 µM under setting [4] and 3 to 10 µM under setting [6]. Besides, under setting [5], the Emax is more than 150%.
As to `COc1ncc(C2(C(=O)NS(=O)(=O)c3cccc4ncccc34)CC2)c(OC)n1` [GIII-24], under setting [3], the “Maximum % activity (with co-corrector)” value was “+ (<150)”. The EC50 is more than 10 µM under setting [4] and more than 10 µM under setting [6]. Moreover, under setting [5], the Emax is less than 50%.
Take `CC(C)(C)OC(=O)N1CCC(S(=O)(=O)NC(=O)C2(c3ccc(Cl)cc3Cl)CC2)CC1` [Example III-80, tert-butyl 4-{[1-(2,4-dichlorophenyl)cyclopropane-1-carbonyl]sulfamoyl}piperidine-1-carboxylate]: the EC50 is, setting by setting: under setting [1], more than 10 µM; under setting [2], more than 10 µM. Where the note is “with co-corrector”, the “Maximum % activity (with co-corrector)” value is listed as “+ (<150)”. For the setting “without co-corrector”, the Emax is less than 50%.
Take `CC(C)Oc1ncccc1C1(C(=O)NS(=O)(=O)c2cccc3ccccc23)CC1` [GII-2, N-(naphthalene-1-sulfonyl)-1-{2-[(propan-2-yl)oxy]pyridin-3-yl}cyclopropane-1-carboxamide]: the “Maximum % activity (with co-corrector)” value under setting [3] is “++ (≥150 and <350)”. Also, the EC50 is, setting by setting: under setting [4], 3 to 10 µM; under setting [6], 3 to 10 µM. Further, under setting [5], the Emax fell in the range of 50 to 150%.
For the compound `COc1ncc(C(F)(F)F)cc1C1(C(=O)NS(=O)(=O)c2cccc3ccccc23)CC1` [Example I-8, 1-[2-methoxy-5-(trifluoromethyl)pyridin-3-yl]-N-(naphthalene-1-sulfonyl)cyclopropane-1-carboxamide], the EC50 under setting [1] was less than 3 µM and the EC50 under setting [2] is less than 3 µM. For the same compound, the “Maximum % activity (with co-corrector)” value (with co-corrector) was “+++ (≥350)”. For the setting “without co-corrector”, the Emax is more than 150%.
As for `COc1cnc(OC(C)C)c(C2(C(=O)NS(=O)(=O)c3cccc4ncccc34)CC2)c1` [Example GI-74, 1-{5-methoxy-2-[(propan-2-yl)oxy]pyridin-3-yl}-N-(quinoline-5-sulfonyl)cyclopropane-1-carboxamide], under setting [3], the “Maximum % activity (with co-corrector)” value was “+++ (≥350)”. Also, the EC50 is less than 3 µM under setting [4] and 3 to 10 µM under setting [6]. Besides, the Emax under setting [5] is more than 150%.
`CCc1ccc(O[C@H]2CCOC2)c(C2(C(=O)NS(=O)(=O)c3cccc4nc(C)ccc34)CC2)c1` [II-115]: the EC50 is less than 3 µM under setting [1] and less than 3 µM under setting [2]. Also, for the setting “with co-corrector”, the “Maximum % activity (with co-corrector)” value is listed as “+++ (≥350)”. Further, for the setting “without co-corrector”, the Emax was more than 150%.
On to `COc1ccc(C2CCC2)cc1C1(C(=O)NS(=O)(=O)c2cccc3c2CCN3)CC1` [Example I-54, 1-(5-cyclobutyl-2-methoxyphenyl)-N-(2,3-dihydro-1H-indole-4-sulfonyl)cyclopropane-1-carboxamide], for which the EC50 is, setting by setting: under setting [1], less than 3 µM; under setting [2], less than 3 µM. The “Maximum % activity (with co-corrector)” value (with co-corrector) was “+++ (≥350)”. Besides, where the note is “without co-corrector”, the Emax is more than 150%.
In the case of `O=C(NS(=O)(=O)c1cccc(Cl)c1)C1(c2ccc(Cl)cc2Cl)CC1` [Example III-26, N-(3-chlorobenzene-1-sulfonyl)-1-(2,4-dichlorophenyl)cyclopropane-1-carboxamide], the EC50 under setting [1] fell in the range of 3 to 10 µM and the EC50 under setting [2] fell in the range of 3 to 10 µM. Also, the “Maximum % activity (with co-corrector)” value (with co-corrector) is “++ (≥150 and <350)”. Further, for the setting “without co-corrector”, the Emax is less than 50%.
Regarding `CCc1cnc(OCC(C)C)c(C2(C(=O)NS(=O)(=O)c3cccc4[nH]ncc34)CC2)c1` [Example I-94, 1-[5-ethyl-2-(2-methylpropoxy)pyridin-3-yl]-N-(1H-indazole-4-sulfonyl)cyclopropane-1-carboxamide], the EC50 runs as follows: under setting [1], less than 3 µM; under setting [2], less than 3 µM. Also, the “Maximum % activity (with co-corrector)” value (with co-corrector) is “+++ (≥350)”. For the same compound, the Emax (without co-corrector) is more than 150%.
